According to patent US11046854B2, “Slippery liquid-infused porous surfaces that prevent microbial surface fouling” (Wisconsin Alumni Research Foundation, priority 2016, dated 2021):

Assays:
Format in all cases: physicochemical
[1] = Water droplet sliding velocity on compound-loaded SLIPS; details: 10 μL water droplets, SLIPS loaded with the compound, tilt angle 10°; mean and standard error of six replicates
Text: All QSI-loaded SLIPS used in this study contained 240 nmol of compound per substrate and all DMABI-loaded SLIPS contained 300 nmol of compound.

[2] = Release of QSIs and DMABI from SLIPS in PBS at 37° C. (UV/vis)
Method: Small Molecule Loading, Oil Infusion, and Characterization of Release. […] Immediately prior to use, loaded films were infused with silicone oil (for melting point and boiling point apparatuses; Sigma-Aldrich) by placing a 2.25 μL droplet of oil on each side and allowing the oil to spread over the entire surface. Excess oil was removed from the surface using tissue paper. […] At designated time points, substrates were removed from the incubation buffer and placed in fresh buffer before returning to the incubator. The release of the loaded agents into the incubation buffer was characterized using a UV/vis spectrophotometer.
Characterization of the release of QSIs and biofilm inhibitors from SLIPS.

[3] = Solubility of triclosan in silicone oil

Row | SMILES | Slide Velocity [1] [mm/s] | loaded compound released ([2]; after the first 24 hours) | additional compound released ([2]; over the next 150 hours) | solubility in silicone oil [3]
1 | Cc1cc2nc(N)[nH]c2cc1C [DMABI, Dimethyl-2-aminobenzamidazole] | 7.4 ± 0.2 | approximately 40% | approximately 40% | –
2 | Oc1cc(Cl)ccc1Oc1ccc(Cl)cc1Cl [Triclosan, 5-chloro-2-(2,4-dichlorophenoxy)phenol] | – | – | – | soluble in silicone oil
